Measurements from US11564912B2, “Methods for treating irritable bowel syndrome (IBS)” (Salix Pharmaceuticals, Inc., priority 2008, dated 2023).

Key:
[1] = system: patients with diarrhea-predominant IBS (dIBS); assay: 34-item IBS-QOL questionnaire, rifaximin 550 mg BID vs placebo; type: in vivo, human; set-up: key to Mean Change From Baseline in IBS-QOL Scores at Week 4: change in score on 0–100 scale, higher = better QOL; conditions: for Mean Change From Baseline in IBS-QOL Scores at Week 4: Rifaximin 1100 mg/d (n = 191)
Procedure: Both groups received placebo for an additional 14 days after the initial 2-week treatment. Quality of life was assessed with the 34-item IBS-QOL questionnaire at baseline and 4 weeks after initiating treatment. Each item was scored on a 5-point scale (1=not at all; 2=slightly; 3=moderately; 4=quite a bit; and 5=extremely or a great deal). Results for composite and subscale scores were converted to a scale ranging from 0 to 100, with higher scores indicating better QOL.
Following a 2-week initial treatment period, both groups of patients received placebo for an additional 14 days. Quality of life was assessed via the 34-item IBS-QOL questionnaire at baseline and 4 weeks after initiating treatment. Each item was scored on a 5-point scale (1=not at all; 2=slightly; 3=moderately; 4=quite a bit; 5=extremely or a great deal); results for composite and subscale scores were converted to a scale ranging from 0 to 100, with higher scores indicating better QOL.

[2] = as previously disclosed by Applicants; cited from earlier work
[3] = system: subjects with IBS; assay: Combined analysis of the two studies of rifaximin 550 mg TID; type: in vivo, human
[4] = oral administration; Descombe et al. 1994; cited from earlier work
[5] = system: subjects with IBS; assay: Combined analysis of the two studies of rifaximin 550 mg TID; type: in vivo, human; remark: listed apart in the source
Text: (§1) A measure of efficacy is based on subjects' answers to the Weekly Subject Global Assessment (SGA) questions over the study duration in relation to their IBS symptoms.

[6] = system: patients with nonconstipation irritable bowel syndrome (non-C IBS); assay: Trial of rifaximin 550 mg TID for 14 days with 10-week follow-up (Example 5; Study 2 of Example 6); type: in vivo, human
[7] = system: subjects with IBS; assay: Study 1 of rifaximin 550 mg TID for 14 days, analysis after 3 months; type: in vivo, human
Text: as §1

[8] = system: species of Staphylococcus, Streptococcus, Enterococcus, and Enterobacteriaceae; conditions: cited from earlier work
[9] = <2 for at least 50% of days in a week for at least 2 weeks during PEP
[10] = at least 2 out of 4 weeks adequate relief during weeks 3 through 6 (weekly question)
[11] = weekly median vs baseline for at least 2 weeks during PEP
[12] = weekly mean vs baseline for at least 2 weeks during PEP

(2S,16Z,18E,20S,21S,22R, 23R,24R,25S,26S,27S,28E)-5,6,21,23,25 Pentahydroxy-27-methoxy -2,4,11,16,20,22,24,26-octamethyl-2,7-(epoxypentadeca-(1,11,13)trienimino)benzofuro (4,5-e) pyrido(1,2,-a) benzimidazole-1,15(2H)-dione,25-acetate [Rifaximin]
Improvement with rifaximin over placebo, IBS-QOL at Week 4 ([1]; Body image): 37.4%
Mean Change From Baseline in IBS-QOL Scores at Week 4 ([1]; Body image): 20.1
Improvement with rifaximin over placebo, IBS-QOL at Week 4 ([1]; Dysphoria): 25.3%
Mean Change From Baseline in IBS-QOL Scores at Week 4 ([1]; Dysphoria): 24.8
Improvement with rifaximin over placebo, IBS-QOL at Week 4 ([1]; Food avoidance): 22.1%
Mean Change From Baseline in IBS-QOL Scores at Week 4 ([1]; Food avoidance): 25.0
Improvement with rifaximin over placebo, IBS-QOL at Week 4 ([1]; Health worry): 30.6%
Mean Change From Baseline in IBS-QOL Scores at Week 4 ([1]; Health worry): 16.0
Improvement with rifaximin over placebo, IBS-QOL at Week 4 ([1]; Interference with activity): 22.2%
Mean Change From Baseline in IBS-QOL Scores at Week 4 ([1]; Interference with activity): 22.2
Improvement with rifaximin over placebo, IBS-QOL at Week 4 ([1]; Overall score): 28.7%
Mean Change From Baseline in IBS-QOL Scores at Week 4 ([1]; Overall score, 14 days, scale 0 to 100): 20.4
Improvement with rifaximin over placebo, IBS-QOL at Week 4 ([1]; Relationship): 39.5%
Mean Change From Baseline in IBS-QOL Scores at Week 4 ([1]; Relationship): 14.9
Improvement with rifaximin over placebo, IBS-QOL at Week 4 ([1]; Sexual): 24.9%
Mean Change From Baseline in IBS-QOL Scores at Week 4 ([1]; Sexual): 13.6
Improvement with rifaximin over placebo, IBS-QOL at Week 4 ([1]; Social reaction): 31.6%
Mean Change From Baseline in IBS-QOL Scores at Week 4 ([1]; Social reaction): 17.3
Rifaximin exposure in healthy subjects compared with subjects having hepatic encephalopathy [2]: significantly lower
Daily abdominal pain <2, responders [3, 9]: 39%
Global IBS symptoms, responders [3, 10]: 41%
IBS symptom of Bloating, responders [3, 10]: 40%
Abdominal Pain reduction of 2 point in median, responders ([3]; at least 2 weeks during PEP): 39%
Abdominal Pain reduction of 3 point in mean, responders ([3]; at least 2 weeks during PEP): 6% vs 7%
Abdominal Pain reduction of 3 point in median, responders ([3]; at least 2 weeks during PEP): 21%
Abdominal pain reduction of 1 point in median, responders [3, 11]: 63%
Systemic absorption [4]: negligible
Abdominal Pain reduction of 2 point in mean, responders ([5]; at least 2 weeks during PEP): 25%
Overall reduction of mean weekly abdominal pain by >=25%, responders ([5]; at least 2 weeks during PEP): 57%
Overall reduction of mean weekly abdominal pain by >=50%, responders ([5]; at least 2 weeks during PEP): 35%
Overall reduction of mean weekly abdominal pain by >=75%, responders ([5]; at least 2 weeks during PEP): 14%
Overall reduction of median weekly abdominal pain by >=25%, responders ([5]; at least 2 weeks during PEP): 62%
Overall reduction of median weekly abdominal pain by >=50%, responders ([5]; at least 2 weeks during PEP): 44%
Overall reduction of median weekly abdominal pain by >=75%, responders ([5]; at least 2 weeks during PEP): 21%
Abdominal pain reduction of 1 point in mean, responders [5, 12]: 52%
Subjects with skin or subcutaneous tissue disorders ([6]; 550 mg rifaximin TID): 1.3%
Early discontinuation of study, primary reason Adverse Event/Serious Adverse Event ([6]; Rifaximin 550 mg TID, randomized subjects (316)): 0 n (%)
Daily abdominal pain <2, responders [7, 9]: 40%
Global IBS symptoms, responders [7, 10]: 41%
IBS symptom of Bloating, responders [7, 10]: 40%
Abdominal Pain reduction of 2 point in mean, responders ([7]; at least 2 weeks during PEP): 26%
Abdominal Pain reduction of 2 point in median, responders ([7]; at least 2 weeks during PEP): 37%
Abdominal Pain reduction of 3 point in mean, responders ([7]; at least 2 weeks during PEP): 6% vs 7%
Abdominal Pain reduction of 3 point in median, responders ([7]; at least 2 weeks during PEP): 22%
Overall reduction of mean weekly abdominal pain by >=25%, responders ([7]; at least 2 weeks during PEP): 56%
Overall reduction of mean weekly abdominal pain by >=50%, responders ([7]; at least 2 weeks during PEP): 36%
Overall reduction of mean weekly abdominal pain by >=75%, responders ([7]; at least 2 weeks during PEP): 14%
Overall reduction of median weekly abdominal pain by >=25%, responders ([7]; at least 2 weeks during PEP): 63%
Overall reduction of median weekly abdominal pain by >=50%, responders ([7]; at least 2 weeks during PEP): 44%
Overall reduction of median weekly abdominal pain by >=75%, responders ([7]; at least 2 weeks during PEP): 23%
Abdominal pain reduction of 1 point in mean, responders [7, 12]: 52%
Abdominal pain reduction of 1 point in median, responders [7, 11]: 63%
In vitro antibacterial activity [8]: active
